Data taken from ChEMBL document CHEMBL5131555, “Antibacterial Nanoassembled Calix[4]arene Exposing Choline Units Inhibits Biofilm and Motility of Gram Negative Bacteria” (2022).
Activity calls are given as the source filed them. The calls are words filed in the database; no cut-off is given here.

Tests used:
Pseudomonas aeruginosa [1] = assay: Antibacterial activity against Pseudomonas aeruginosa ATCC 9027 assessed as bacterial growth inhibition measured after 24 hrs by CLSI based microdilution method; type: functional
Escherichia coli [2] = assay: Bactericidal activity against Escherichia coli ATCC 10536 assessed as planktonic growth inhibition at 1/4 times of MIC measured after 24 hrs by spectrophotometer EIA reader analysis; type: functional
Escherichia coli [3] = assay: Antibiofilm activity against Escherichia coli ATCC 10536 assessed as inhibition of biofilm formation at 1/4 times of MIC measured after 24 hrs by safranin staining based light microscopy; type: functional, organism-based
Escherichia coli [4] = assay: Effect on twitching capacity of Escherichia coli ATCC 10536 assessed as reduction of motility zone at 1/2 times of MIC incubated for 24 hrs; type: functional; design: scale not given: the % may be the effect or the level left
Pseudomonas aeruginosa [5] = assay: Antibiofilm activity against Pseudomonas aeruginosa ATCC 9027 assessed as inhibition of biofilm biomass at 1/2 times of MIC measured after 24 hrs by safranin staining based spectrophotometer EIA reader analysis; type: functional
Cell membrane [6] = assay: Induction of outer membrane permeabilization in Pseudomonas aeruginosa ATCC 9027 assessed as crystal violet uptake at MIC incubated for 60 mins by crystal violet staining based UV-VIS spectrophotometer ( Rvb = 53%)
Pseudomonas aeruginosa [7] = assay: Antibiofilm activity against Pseudomonas aeruginosa ATCC 9027 assessed as reduction in preformed bacterial biofilm at 18.8 microg/ml measured after 24 hrs by safranin staining based spectrophotometer EIA reader analysis; type: functional; design: scale not given: the % may be the effect or the level left; details: dose 18.8 µg/ml
Pseudomonas aeruginosa [8] = assay: Effect on twitching capacity of ofloxacin resistant Pseudomonas aeruginosa 1 ocular isolate assessed as reduction of motility zone at 1/2 times of MIC incubated for 24 hrs; type: functional; design: scale not given: the % may be the effect or the level left
Escherichia coli [9] = assay: Antibacterial activity against Escherichia coli ATCC 10536 assessed as bacterial growth inhibition measured after 24 hrs by CLSI based microdilution method; type: functional
Pseudomonas aeruginosa [10] = assay: Bactericidal activity against Pseudomonas aeruginosa ATCC 9027 assessed as bacterial growth inhibition measured after 24 to 48 hrs by CLSI based microdilution method; type: functional; details: time 24-48 hrs
Pseudomonas aeruginosa [11] = assay: Effect on twitching capacity of Pseudomonas aeruginosa ATCC 9027 assessed as reduction of motility zone at 1/2 times of MIC incubated for 24 hrs; type: functional; design: scale not given: the % may be the effect or the level left
Escherichia coli [12] = assay: Bactericidal activity against Escherichia coli ATCC 10536 assessed as bacterial growth inhibition measured after 24 to 48 hrs by CLSI based microdilution method; type: functional; details: time 24-48 hrs
Escherichia coli [13] = assay: Antibiofilm activity against Escherichia coli ATCC 10536 assessed as reduction in preformed bacterial biofilm at 150 microg/ml measured after 24 hrs by safranin staining based spectrophotometer EIA reader analysis; type: functional; design: scale not given: the % may be the effect or the level left; details: dose 150 µg/ml
Pseudomonas aeruginosa [14] = assay: Bactericidal activity against ofloxacin resistant Pseudomonas aeruginosa 1 ocular isolate assessed as bacterial growth inhibition measured after 24 to 48 hrs by CLSI based microdilution method; type: functional; details: time 24-48 hrs
Pseudomonas aeruginosa [15] = assay: Bactericidal activity against Pseudomonas aeruginosa DSM 102273 assessed as bacterial growth inhibition measured after 24 to 48 hrs by CLSI based microdilution method; type: functional; details: time 24-48 hrs
Escherichia coli [16] = assay: Antibiofilm activity against Escherichia coli ATCC 10536 assessed as inhibition of biofilm formation at 1/2 times of MIC measured after 24 hrs by safranin staining based light microscopy; type: functional, organism-based
Escherichia coli [17] = assay: Antibiofilm activity against Escherichia coli ATCC 10536 assessed as inhibition of biofilm biomass at 1/2 times of MIC measured after 24 hrs by safranin staining based spectrophotometer EIA reader analysis; type: functional
Pseudomonas aeruginosa [18] = assay: Antibiofilm activity against Pseudomonas aeruginosa ATCC 9027 assessed as reduction in preformed bacterial biofilm at 37.6 microg/ml measured after 24 hrs by safranin staining based spectrophotometer EIA reader analysis; type: functional; design: scale not given: the % may be the effect or the level left; details: dose 37.6 µg/ml
Escherichia coli [19] = assay: Effect on swarming capacity of Escherichia coli ATCC 10536 assessed as reduction of motility zone at 1/2 times of MIC incubated for 24 hrs; type: functional; design: scale not given: the % may be the effect or the level left
Escherichia coli [20] = assay: Bactericidal activity against Escherichia coli ATCC 10536 assessed as planktonic growth inhibition at 1/8 times of MIC measured after 24 hrs by spectrophotometer EIA reader analysis; type: functional
Pseudomonas aeruginosa [21] = assay: Effect on swarming capacity of Pseudomonas aeruginosa ATCC 9027 assessed as reduction of motility zone at 1/2 times of MIC incubated for 24 hrs; type: functional; design: scale not given: the % may be the effect or the level left
Escherichia coli [22] = assay: Antibiofilm activity against Escherichia coli ATCC 10536 assessed as formation of looser colonies at 1/4 times of MIC measured after 24 hrs by safranin staining based light microscopy; type: functional, organism-based
Pseudomonas aeruginosa [23] = assay: Antibacterial activity against Pseudomonas aeruginosa DSM 102273 assessed as bacterial growth inhibition measured after 24 hrs by CLSI based microdilution method; type: functional
Escherichia coli [24] = assay: Antibiofilm activity against Escherichia coli ATCC 10536 assessed as inhibition of biofilm biomass at 1/4 times of MIC measured after 24 hrs by safranin staining based spectrophotometer EIA reader analysis; type: functional
Pseudomonas aeruginosa [25] = assay: Antibacterial activity against ofloxacin resistant Pseudomonas aeruginosa 1 ocular isolate assessed as bacterial growth inhibition measured after 24 hrs by CLSI based microdilution method; type: functional
Pseudomonas aeruginosa [26] = assay: Antibiofilm activity against Pseudomonas aeruginosa ATCC 9027 assessed as reduction in preformed bacterial biofilm at 75 microg/ml measured after 24 hrs by safranin staining based spectrophotometer EIA reader analysis; type: functional; design: scale not given: the % may be the effect or the level left; details: dose 75 µg/ml
Escherichia coli [27] = assay: Antibiofilm activity against Escherichia coli ATCC 10536 assessed as formation of looser colonies at 1/2 times of MIC measured after 24 hrs by safranin staining based light microscopy; type: functional, organism-based
Escherichia coli [28] = assay: Antibiofilm activity against Escherichia coli ATCC 10536 assessed as inhibition of biofilm biomass at 1/8 times of MIC measured after 24 hrs by safranin staining based spectrophotometer EIA reader analysis; type: functional
Cell membrane [29] = assay: Induction of outer membrane permeabilization in Escherichia coli ATCC 10536 assessed as crystal violet uptake at MIC incubated for 60 mins by crystal violet staining based UV-VIS spectrophotometer ( Rvb = 56%)
Pseudomonas aeruginosa [30] = assay: Antibiofilm activity against ofloxacin resistant Pseudomonas aeruginosa 1 ocular isolate assessed as inhibition of biofilm biomass at 1/2 times of MIC measured after 24 hrs by safranin staining based spectrophotometer EIA reader analysis; type: functional

In the case of `CCCCCCCCCCCCOc1c2cc(C[N+](C)(C)CCO)cc1Cc1cc(C[N+](C)(C)CCO)cc(c1OCCCCCCCCCCCC)Cc1cc(C[N+](C)(C)CCO)cc(c1OCCCCCCCCCCCC)Cc1cc(C[N+](C)(C)CCO)cc(c1OCCCCCCCCCCCC)C2.[Cl-].[Cl-].[Cl-].[Cl-]`, the MIC (Pseudomonas aeruginosa [1]) is reported as 9.4 µg/mL, the “inhibition (INH)” value (Escherichia coli [2]) is reported as 14.5% and the Activity (Escherichia coli [3]) is reported as “Active”. For the same molecule, the Activity (Escherichia coli [4]) was 50%, the “inhibition (INH)” value (Pseudomonas aeruginosa [5]) was 40% and the Activity (Cell membrane [6]) was 71.6%. It also gave an Activity (Pseudomonas aeruginosa [7]) of 37%, an Activity (Pseudomonas aeruginosa [8]) of 50% and an MIC (Escherichia coli [9]) of 18.8 µg/mL. For the same molecule, the MBC (Pseudomonas aeruginosa [10]) was 18.8 µg/mL, the Activity (Pseudomonas aeruginosa [11]) was 50% and the MBC (Escherichia coli [12]) was 18.8 µg/mL. For the same molecule, the Activity (Escherichia coli [13]) was 66.5%, the MBC (Pseudomonas aeruginosa [14]) was 18.8 µg/mL and the MBC (Pseudomonas aeruginosa [15]) was 18.8 µg/mL. For the same molecule, the Activity (Escherichia coli [16]) was “Active”, the “inhibition (INH)” value (Escherichia coli [17]) was 90.4% and the Activity (Pseudomonas aeruginosa [18]) was 37%. For the same molecule, the Activity (Escherichia coli [19]) was 50%, the “inhibition (INH)” value (Escherichia coli [20]) was 1.8% and the Activity (Pseudomonas aeruginosa [21]) was 50%. The Activity (Escherichia coli [22]) was “Active”, the MIC (Pseudomonas aeruginosa [23]) was 18.8 µg/mL and the “inhibition (INH)” value (Escherichia coli [24]) was 77.6%. The MIC (Pseudomonas aeruginosa [25]) was 9.4 µg/mL, the Activity (Pseudomonas aeruginosa [26]) was 58% and the Activity (Escherichia coli [27]) was “Active”. The “inhibition (INH)” value (Escherichia coli [28]) was 51%, the Activity (Cell membrane [29]) was 78.8% and the “inhibition (INH)” value (Pseudomonas aeruginosa [30]) was 40%.
